Measurements reported in patent US20100190706A1, “Stable Non-Aqueous Pharmaceutical Compositions” (NOVO NORDISK A/S, priority 2007, published 2010).
Read-outs that look alike come from different tables or passages of the source.

Legend:
[1] = cited from earlier work
[2] = protic, very hydrophilic and polar solvents; lyophilized from aqueous solution of pH 6.0; cited from earlier work
[3] = Isoelectric point (pI) of the insulinotropic peptide; format: physicochemical
Description: The pI of a protein can be determined experimentally by electrophoresis techniques such as electrofocusing:
A pH gradient is established in an anticonvective medium, such as a polyacrylamide gel. When a protein is introduced in to the system it will migrate under influence of an electric field applied across the gel. Positive charged proteins will migrate to the cathode. Eventually, the migrating protein reaches a point in the pH gradient where its net electrical charge is zero and is said to be focused. This is the isoelectric pH (pI) of the protein. The protein is then fixed on the gel and stained. The pI of the protein can then be determined by comparison of the position of the protein on the gel relative to marker molecules with known pI values.

Compound | Dielectricity constant, ε* ([1]; 293.2 Kelvin) | other results
CC(C)O [Isopropanol] | 20.18 | –
O [Water] | 80.1 | –
lysozyme: lysozyme lyophilized from aqueous solution of pH 6.0 (Klibanov et al) | – | solubility [2]: more than 10 mg/ml
Arg34, Lys26(N∈-(γ-Glu(Na-hexadecanoyl)))-GLP-1(7-37) | – | pI [3]: 5.6
CC(O)CO (stereo not drawn) [1,2-propanediol [propylene glycol], 1,2-propanediol] | – | Dielectricity constant, ε* ([1]; 303.2 Kelvin): 27.5
CCO [Ethanol] | 25.3 | –
CO [Methanol] | 33.0 | –
OCCCO [1,3-propanediol] | 35.1 | –
CC(O)CCO (stereo not drawn) [1,3-butanediol] | 28.8 | –
